The text below walks through data of patent US20230183705A1, “PRODUCTS FOR SUPPRESSING OR REDUCING THE EXPRESSION OR ACTIVITY OF A SNORNA AND USES THEREOF IN THE TREATMENT OF CANCER” (NINOVAX, priority 2020, published 2023).

Common to all, as to format: cell-based, human
One series has as its system snoRNA-jouvence. Description: Expression of the snoRNA-jouvence by RT-qPCR (Taqman) in siRNA-treated HCT116 cells. To be noted: siRNA-treated HCT116 cells compared to non-treated control HCT116 cells, siRNA 10 nM. The procedure: (§1) The siRNA treatment consists of three reverse transfections applied at day 0, day 2, day 4, followed by the determination of the number of cells at day 7 for A-B-C-D. For E, a single treatment has been done at day 0, and the number of cells was counted two days later. siRNA was used at a concentration of 10 nM. Five different human cancer cell lines were used. A) HCT116 cells (colon cancer), B) MCF7 cells (breast cancer), C) U87 cells (glioblastoma), D) A549 cells (lung cancer), and E) K562 cells (leukemia). In siRNA-treated cells, inventors observed a strong reduction of the number of cells, by about 50% or more, except in E in which the reduction was about 10% probably due to the fact that only a single treatment has been performed. […] In si-RNA treated cells, inventors observed a 40% reduction of snoRNA-jouvence expression.
The effect of the knock-down of the snoRNA-jouvence in HCT116 cells was assessed by the transfection of short interfering RNA (siRNA). First, the cells were seeded in 12-well plates (in triplicates), with the following number of cells per well: HCT116 and MCF7: 3.0×10^4, K562: 2.5 x10^4, A549: 2.0x10^4, and U87: 6.0x10^4. […] Then, after 72 h (meaning at J7 from the starting point), the medium was changed and cells were counted and compared to the different controls. […]
(In general: In qPCR the cycle at which signal appears reflects the starting amount.)

A further series has as its system U87 cells (glioblastoma). Description: Cell proliferation (cell counting) after siRNA knock-down of snoRNA-jouvence. Particulars: siRNA 10 nM, three transfections at day 0, 2, 4, cells counted at day 7. How it is done: as §1
(§2) All human cancer cell lines were provided from ATCC. HCT116 were cultured in McCoy’s 5A medium (Gibco, Invitrogen, USA), supplemented with 10% Fetal Bovine Serum (FBS) (Biowest, France). MCF7, A549, and K562 cells were cultured in RPMI 1640 + Glutamax medium (Gibco, Invitrogen, USA), supplemented with 10% Fetal Bovine Serum (FBS) (Biowest, France). U87 cells were cultured in Dulbecco’s modified Eagle’s medium (DMEM) (Gibco), supplemented with 10% FBS. Cells were incubated at 37° C. in a humidified atmosphere containing 5% CO2. The medium was changed every two days, and cells were transferred using 0.05% trypsin/EDTA (Gibco Invitrogen).
(§3) The effect of the knock-down of the snoRNA-jouvence in HCT116 cells was assessed by the transfection of short interfering RNA (siRNA). First, the cells were seeded in 12-well plates (in triplicates), with the following number of cells per well: HCT116 and MCF7: 3.0×10^4, K562: 2.5 x10^4, A549: 2.0x10^4, and U87: 6.0x10^4. […] Cell suspensions were directly transfected with the corresponding siRNA (reverse transfection) at a final concentration of 10 nM per well, using the Lipofectamine RNAiMAX transfection reagent (ThermoFisher Scientific, USA). Forty-eight hours after the first siRNA reverse transfection, a forward transfection was performed on the adherent cells (at the same concentration as the first reverse transfection). Again, forty-eight hours after the siRNA forward transfection, a second forward transfection was performed on the adherent cells (at the same concentration). Then, after 72 h (meaning at J7 from the starting point), the medium was changed and cells were counted and compared to the different controls. For the RNA extraction and RNA-seq analysis performed in HCT116 cells, cell pellets were made under the same conditions (at J7). Experiments were performed in triplicates and the specific knock-down of the snoRNA-jouvence was validated by standard RT-qPCR (TaqMan).
(§4) Study was performed in five different human cancer cell lines, HCT116 cells (colon cancer), MCF7 cells (breast cancer), U87 cells (glioblastoma), A549 cells (lung cancer), and K562 cells (leukemia). The proliferation rate of siRNA-treated cells (snoRNA jouvence knock-down) compared to non-treated Control cells was analysed by cell counting at J7. Briefly, the supernatant was harvested and cells washed with PBS 1X. Then, cells were trypsinized with 300 µl of 0.05% trypsin/EDTA (Gibco) per well. Trypsine was inactivated with 700 µL of the corresponding medium per well, and then counted with the VicellXR (Cell viability Analyzer, Beckman Coulter).

A further series deals with K562 cells (leukemia). Described as above. To be noted: siRNA 10 nM, single treatment at day 0, cells counted two days later. The procedure: as §1, §2, §3, §4
The test system of a further series is A549 cells (lung cancer). Described as above. Particulars: siRNA 10 nM, three transfections at day 0, 2, 4, cells counted at day 7. The procedure:
as §1, §2, §3, §4

The subject of series [1] is HCT116 cells (colon cancer). Described as above. To be noted: siRNA 10 nM, three transfections at day 0, 2, 4, cells counted at day 7. How it is done:
as §1, §2, §3, §4

The test system of series [2] is MCF7 cells (breast cancer). The series is described as above. To be noted: siRNA 10 nM, three transfections at day 0, 2, 4, cells counted at day 7. How it is done:
as §1, §2, §3, §4

The test system of a further series is Ribosomes pathways. Description: Transcriptomic analysis (RNA-seq) with KEGG analysis in HCT116 cells. To be noted: HCT116, siRNA treated versus non-treated cells. How it is done: Briefly, 99 genes over 138 genes of this pathway are deregulated.
as §3, with “(TaqMan). […]” for “(TaqMan).”
In brief, technically, RNA concentration was measured using Qubit® RNA Assay Kit in Qubit® 2.0 Flurometer (Life Technologies, CA, USA). RNA integrity was assessed using the RNA Nano 6000 Assay Kit of the Bioanalyzer 2100 system (Agilent Technologies, CA, USA). […] At last, PCR products were purified (AMPure XP system) and library quality was assessed on the Agilent Bioanalyzer 2100 system. […] After cluster generation, the library preparations were sequenced on an Illumina Hiseq platform and 125 bp/150 bp paired-end reads were generated. […]

For “siRNA: silencer selected siRNA (Lock-Nucleotide-Acid siRNA) comprising SEQ ID NO: 3 as sense and SEQ ID NO: 4 as antisense sequence, against snoRNA-jouvence (sense GGCUAUUGUGGACAGAGGA; antisense UCCUCUGUCCACAAUAGCC; Silencer Select LNA-modified siRNA, pattern not given here)”, the “reduction of snoRNA-jouvence expression” value in the series on snoRNA-jouvence is 40%. Also, the “reduction of the number of cells” value in the series on U87 cells (glioblastoma) is reported as no less than 50%; in the series with K562 cells (leukemia), “about 10%”; with A549 cells (lung cancer), no less than 50%; in series [1], no less than 50%; in series [2] it was no less than 50%. In addition, the “deregulated genes of the Ribosomes pathways (over 138 genes)” value in the series on Ribosomes pathways was found to be 99 genes. Also, the “downregulated genes of the Ribosomes pathways” value in the series with Ribosomes pathways amounted to 92 genes. For the same substance, in the series with Ribosomes pathways, the “upregulated genes of the Ribosomes pathways” value is 7 genes.
